Key:
A549 [1] = experiment: Anticancer activity against human A549 cells assessed as inhibition of cell proliferation; format: functional, cell-based
HeLa = experiment: Anticancer activity against human HeLa cells; format: functional, cell-based
DU-145 = experiment: Anticancer activity against human DU-145 cells; format: functional, cell-based
MCF7 [2] = experiment: Anticancer activity against human MCF7 cells; format: functional, cell-based
HepG2 [3] = experiment: Anticancer activity against human HepG2 cells; format: functional, cell-based
MCF7 [4] = experiment: Anticancer activity against human MCF7 cells assessed as inhibition of cell viability; format: functional, cell-based
[5] = target: T1, Amine oxidase [flavin-containing] A (Rattus norvegicus, UniProt P21396); experiment: Inhibition of rat brain MAO-A relative to control; format: tissue-based
T1 sequence (P21396 whole entry): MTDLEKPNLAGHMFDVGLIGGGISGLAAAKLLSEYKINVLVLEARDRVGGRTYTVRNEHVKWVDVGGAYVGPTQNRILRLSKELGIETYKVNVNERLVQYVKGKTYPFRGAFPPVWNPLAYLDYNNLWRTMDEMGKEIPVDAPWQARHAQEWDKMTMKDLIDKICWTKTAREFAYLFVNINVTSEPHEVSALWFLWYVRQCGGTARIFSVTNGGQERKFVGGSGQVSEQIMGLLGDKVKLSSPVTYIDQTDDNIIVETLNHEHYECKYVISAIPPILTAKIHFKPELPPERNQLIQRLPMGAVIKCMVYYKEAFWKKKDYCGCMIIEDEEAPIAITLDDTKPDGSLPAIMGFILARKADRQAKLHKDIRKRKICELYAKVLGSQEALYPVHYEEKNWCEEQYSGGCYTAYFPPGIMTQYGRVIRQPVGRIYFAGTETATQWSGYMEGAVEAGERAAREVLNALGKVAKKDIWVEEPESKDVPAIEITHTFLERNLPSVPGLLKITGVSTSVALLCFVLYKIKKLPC

A549 [6] = experiment: Cytotoxicity against human A549 cells assessed as inhibition of tumor cell proliferation incubated for 72 hrs by MTT assay; format: functional, cell-based; details: A549, 72 h
MCF7 [7] = experiment: Growth inhibition of human MCF7 cells by SRB assay; format: functional
MDA-MB-435 = experiment: Growth inhibition of human MDA-MB-435 cells by SRB assay; format: functional
B16-F10 = experiment: Anticancer activity against mouse B16-F10 cells incubated for 48 hrs by MTT assay; format: functional, cell-based; details: B16-F10, 48 h
A549 [8] = experiment: Anticancer activity against human A549 cells assessed as reduction in cell viability incubated for 48 hrs by MTT assay; format: functional, cell-based; details: A549, 48 h
MCF7 [9] = experiment: Anticancer activity against human MCF7 cells assessed as reduction in cell viability incubated for 48 hrs by MTT assay; format: functional, cell-based; details: MCF7, 48 h
SW-620 = experiment: Cytotoxicity against human SW620 cells; format: functional, cell-based
A549 [10] = experiment: Cytotoxicity against human A549 cells; format: functional, cell-based
PC-3 [11] = experiment: Cytotoxicity against human PC-3 cells; format: functional, cell-based
HCT-116 [12] = experiment: Cytotoxicity against human HCT-116 cells; format: functional, cell-based
L02 = experiment: Antiproliferative activity against human L02 cells by MTT assay; format: functional, cell-based
MCF7 [13] = experiment: Cytotoxicity against human MCF7 cells incubated for 48 hrs by SRB assay relative to control; format: functional; design: concentration or dose not given beside the values
HepG2 [14] = experiment: Cytotoxicity against human HepG2 cells incubated for 48 hrs by SRB assay relative to control; format: functional; design: concentration or dose not given beside the values
[15] = Cytotoxicity against human HBF4 cells incubated for 48 hrs by SRB assay relative to control; format: toxicity, cell-based; design: concentration or dose not given beside the values; details: hbf4, 48 h
K562 = experiment: Anticancer activity against human K562 cells; format: functional, cell-based
PC-3 [16] = experiment: Anticancer activity against human PC-3 cells assessed as inhibition of cell growth; format: functional, cell-based
HepG2 [17] = experiment: Anticancer activity against human HepG2 cells assessed as inhibition of cell viability; format: functional, cell-based
HCT-116 [18] = experiment: Anticancer activity against human HCT-116 cells assessed as inhibition of cell growth; format: functional, cell-based

Compound: O=C1OCC2Nc3ccccc3NC3(C(=O)N(Cc4ccccc4)c4ccccc43)C12 (stereo not drawn)
- IC50 (A549 [1]): 1.35 µM
- IC50 (HeLa): 2.29 µM
- IC50 (DU-145): 1.15 µM
- IC50 (MCF7 [2]): 2.24 µM

Compound: N#CC1=C(N)NC2=C(CCCCC2)C12C(=O)Nc1ccccc12 (stereo not drawn)
- IC50 (HepG2 [3]): 20 µM
- IC50 (MCF7 [4]): 18 µM

Compound: CCCN(CCC)C(=O)CSc1nc2c(c(=O)n1CC)C1(CCCCC1)Cc1ccccc1-2
- inhibition (INH) [5]: 86%

Compound: C[C@]12CC[C@H](O)CC1=CCC1C2CC[C@@]2(C)C1CC[C@@H]2C1=CC2(C(=O)Nc3ccc(Cl)cc32)C(C#N)=C(N)N1 (stereo partly drawn)
- IC50 (A549 [6]): 11.5 µM

Compound: N#CC1=C(N)OC2=C(C(=O)c3ccccc32)C12C(=O)Nc1ccc(F)cc12 (stereo not drawn)
- GI50 (MCF7 [7]): 90.9 µM
- GI50 (MDA-MB-435): > 100 µM

Compound: COC1=CC2(C=C(C(=O)NNc3ccc(OC(F)(F)F)cc3)c3cc(OC)cc(OC)c32)C(OC)=CC1=O (stereo not drawn)
- IC50 (B16-F10): 19.3 µM
- IC50 (A549 [8]): 17.9 µM
- IC50 (MCF7 [9]): 15.3 µM

Compound: CCC(=O)N1CC2C(=O)Oc3ccccc3C2C12C(=O)Nc1ccccc12 (stereo not drawn)
- IC50 (SW-620): 4.28 µM
- IC50 (A549 [10]): 11 µM
- IC50 (PC-3 [11]): 46.7 µM
- IC50 (HCT-116 [12]): 10.2 µM

Compound: Cc1coc2c1C(=O)C(=O)c1c-2ccc2c1CCCC2(C)C [TANSHINONE IIA]
- IC50 (L02): 65.3 µM

Compound: CC1(C)CC(=O)C2=C(C1)N(c1ccccc1)C(N)=C(C#N)C21C(=O)Nc2ccccc21 (stereo not drawn)
- Activity (MCF7 [13]): 76%
- Activity (HepG2 [14]): 39%
- Activity [15]: 23%

Compound: CN1C(=O)[C@@]2(c3cccc(Cl)c31)[C@H](O)c1ccccc1[C@@H]2[C@]1(CN2CCSCC2)C(=O)N(C)c2c(Cl)cccc21
- IC50 (K562): 21.9 µM

Compound: CCOC(=O)C1=C2N=C(N)c3ccccc3N2C2=C(C(=O)CC(C)(C)C2)C12C(=O)Nc1ccccc12 (stereo not drawn)
- Activity (MCF7 [13]): 76%
- Activity (HepG2 [14]): 29%
- Activity [15]: 30%

Compound: CN1CCN(C(=O)C2CN(C(=O)N3CCCCC3)C3(C(=O)Nc4cc(Cl)ccc43)C2c2ccccc2O)CC1 (stereo not drawn)
- IC50 (SW-620): 31.6 µM
- IC50 (A549 [10]): 1.17 µM
- IC50 (PC-3 [11]): > 50 µM
- IC50 (HCT-116 [12]): > 50 µM

Compound: CCC(=O)N1CC2C(=O)Oc3ccccc3C2C12C(=O)Nc1cc(Cl)ccc12 (stereo not drawn)
- IC50 (SW-620): < 0.08 µM
- IC50 (A549 [10]): > 50 µM
- IC50 (PC-3 [11]): > 50 µM
- IC50 (HCT-116 [12]): > 50 µM

Compound: CCOC(=O)C1=C2N=C(N)C3=C(SC4CCCCC34)N2C2=C(C(=O)CC(C)(C)C2)C12C(=O)Nc1ccccc12 (stereo not drawn)
- Activity (MCF7 [13]): 80%
- Activity (HepG2 [14]): 25%
- Activity [15]: 17%

Compound: N#CC1=C(N)OC2=C(C(=O)c3ccccc32)C12C(=O)Nc1ccc(Br)cc12 (stereo not drawn)
- GI50 (MCF7 [7]): > 100 µM
- GI50 (MDA-MB-435): 1.8 µM

Compound: CN1C(=O)[C@@]2(c3cccc(Cl)c31)[C@H](O)c1ccccc1[C@@H]2[C@]1(CN2CCCC2)C(=O)N(C)c2c(Cl)cccc21
- IC50 (K562): 21 µM

Compound: N#CC1=C(N)OC2=C(C(=O)C=C2)C12C(=O)Nc1ccc(Cl)cc12 (stereo not drawn)
- GI50 (MCF7 [7]): 53 µM
- GI50 (MDA-MB-435): 29.9 µM

Compound: Cc1ccc2c(c1)C1(C(=O)N2)C(C#N)=C(N)NC2=C1CCCC2 (stereo not drawn)
- IC50 (HepG2 [3]): 36 µM
- IC50 (MCF7 [4]): 28 µM

Compound: CCn1c(=S)[nH]c2c(c1=O)C1(CCCCC1)Cc1ccccc1-2
- inhibition (INH) [5]: 58%

Compound: CN1C(=O)[C@@]2(c3cccc(Cl)c31)[C@H](O)c1ccccc1[C@@H]2[C@]1(CN2CCCCC2)C(=O)N(C)c2c(Cl)cccc21
- IC50 (K562): 32.8 µM

Compound: CC1(C)CC(=O)C2=C(C1)N(c1ccc(Cl)cc1)C(N)=C(C#N)C21C(=O)Nc2ccccc21 (stereo not drawn)
- Activity (MCF7 [13]): 79%
- Activity (HepG2 [14]): 38%
- Activity [15]: 30%

Compound: O=C(C1CN(C(=O)N2CCCCC2)C2(C(=O)Nc3ccccc32)C1c1ccc(Cl)cc1O)N1CCOCC1 (stereo not drawn)
- IC50 (SW-620): < 0.08 µM
- IC50 (A549 [10]): 36.8 µM
- IC50 (PC-3 [11]): > 50 µM
- IC50 (HCT-116 [12]): > 50 µM

Compound: CCOC(=O)C1=C(N)N(c2ccccc2)C2=C(C(=O)CC(C)(C)C2)C12C(=O)Nc1ccccc12 (stereo not drawn)
- Activity (MCF7 [13]): 78%
- Activity (HepG2 [14]): 37%
- Activity [15]: 24%

Compound: CC(=O)OC[C@H]1OC(Sc2nc(-c3ccc(C)o3)c3c(n2)N(c2ccc(F)cc2)C2(CCCCC2)S3)[C@H](OC(C)=O)[C@@H](OC(C)=O)[C@@H]1OC(C)=O (stereo partly drawn)
- IC50 (PC-3 [16]): 0.224 µM
- IC50 (HepG2 [17]): 0.135 µM
- IC50 (HCT-116 [18]): 0.12 µM

— ChEMBL document CHEMBL5233269, “Anticancer potential of spirocompounds in medicinal chemistry: A pentennial expedition” (Eur J Med Chem, 2021)
